{
  "source": "patent US8452543B2",
  "about": "“High throughput screening for antimicrobial dosing regimens” (priority 2005, dated 2013)",
  "key": {"[1]": {"tested_on": "P. aeruginosa PA 27853 and resistant isolates MR1, MR2, MR3", "experiment": "microbe, parasite or virus in culture", "type": "cell-based, Pseudomonas aeruginosa", "conditions": "Pseudomonas aeruginosa", "procedure": "(§1) Minimum inhibitory concentration (MIC)/minimum bactericidal concentration (MBC) were determined in Ca-MHB using a modified macrobroth dilution method as described by the CLSI (10). The final concentration of bacteria in each macrobroth dilution tube was approximately 5×10^5 cfu/ml of Ca-MHB. Serial twofold dilutions of meropenem were used. […] Samples (50 μl) from clear tubes and the cloudy tube with the highest drug concentration were plated on Mueller-Hinton agar (MHA) plates (Hardy Diagnostics, Santa Maria, Calif.). […] Drug carry-over effect was assessed by visual inspection of the distribution of colonies on media plates. The studies were conducted in duplicate and repeated at least once on a separate day."}, "[2]": {"tested_on": "P. aeruginosa PA 27853 and resistant isolates MR1, MR2, MR3", "experiment": "microbe, parasite or virus in culture", "type": "cell-based", "conditions": "Pseudomonas aeruginosa, Etest"}, "[3]": {"tested_on": "amikacin resistant A. baumannii isolates", "experiment": "Resistance confirmation, repeat susceptibility testing, amikacin", "type": "cell-based, Acinetobacter baumannii", "conditions": "for cross-resistance: amikacin resistant isolates", "description": "The media plates were incubated at 35° C. for up to 24 (total population) and 72 hours (sub-populations with reduced susceptibility), then bacterial density from each sample was enumerated visually. The theoretical lower limit of detection was 400 CFU/ml."}, "[4]": {"tested_on": "A. baumannii ATCC BAA 747", "experiment": "MIC/MBC, modified macrobroth dilution", "type": "cell-based", "conditions": "Acinetobacter baumannii, BAA747; A. baumannii isolate (AB BAA 747)", "procedure": "as §1, with “The” for “Minimum inhibitory concentration (MIC)/minimum bactericidal concentration (MBC) were determined in Ca-MHB using a modified macrobroth dilution method as described by the CLSI (10). The”"}, "[5]": {"tested_on": "A. baumannii ATCC BAA 747", "experiment": "Time-kill studies and best-fit model, amikacin", "type": "cell-based, Acinetobacter baumannii"}, "[6]": {"tested_on": "levofloxacin resistant P. aeruginosa isolates", "experiment": "Susceptibility of levofloxacin resistant isolates, screening panel", "type": "cell-based, Pseudomonas aeruginosa"}, "P. aeruginosa ATCC 27853 [7]": {"tested_on": "P. aeruginosa ATCC 27853", "experiment": "MIC/MBC, modified macrobroth dilution", "type": "cell-based, Pseudomonas aeruginosa", "conditions": "P. aeruginosa ATCC 27853", "procedure": "as §1, with “The” for “Minimum inhibitory concentration (MIC)/minimum bactericidal concentration (MBC) were determined in Ca-MHB using a modified macrobroth dilution method as described by the CLSI (10). The”"}, "P. aeruginosa ATCC 27853 [8]": {"tested_on": "P. aeruginosa ATCC 27853", "experiment": "Time-kill studies and model fit, levofloxacin", "type": "cell-based, Pseudomonas aeruginosa", "conditions": "for EC50: Pseudomonas aeruginosa", "procedure": "An overnight culture of the isolate was diluted 30-fold with pre-warmed Ca-MHB and incubated further at 35 C until reaching late log phase growth. The bacterial suspension was diluted with Ca-MHB accordingly based on absorbance at 630 nm; 15 mL of the suspension was transferred to 50 mL sterile conical flasks each containing 1 mL of a drug solution at 16·the target concentration. The final concentration of the bacterial suspension in each flask at baseline was approximately 1×10^8 CFU/mL.\nThe high inoculum was used to simulate the bacterial load in a severe infection, e.g., nosocomial pneumonia. Furthermore, the high inoculum used would allow resistant sub-population(s) to be likely present at baseline. The experiment was conducted for 24 h in a shaker water bath set at 35° C. Serial samples (baseline, 0.5, 1, 2, 4, 8, 12, and 24 h) were obtained from each flask over 24 h to characterize the effect of various drug exposures on the total bacterial population.\nPrior to culturing the bacteria quantitatively, the bacterial samples (0.5 mL) were centrifuged at 10,000 g for 15 min, and reconstituted with sterile normal saline to their original volumes in order to minimize drug carry-over effect. Total bacterial populations were quantified by spiral plating 10 serial dilutions of the samples (50 IL) onto Ca-MHA plates. The media plates were incubated in a humidified incubator (35° C. for 18-24 h, and the bacterial density from each sample was determined by CASBA-4 colony scanner/software (Spiral Biotech, Bethesda, Md.). The reliable limit of detection was 400 CFU/mL. The experiment was repeated once on a separate day.\nThe mathematical framework described Example 1 is used to predict whether a microbial population will be eradicated or survive under an antimicrobial pressure whose concentration over time follows a clinically realistic (time-periodic) profile. For absence of agent (placebo, C=0 Ig/mL) and by inspection in FIG. 13 it is determined that Nmax=10^9.4 CFU/mL. Using this value for Nmax standard nonlinear least squares (differential evolution of mathematica) is used to get a growth rate constant value Kg=0.22 h^−1.\nIt is assumed that Kg is the same for all bacterial sub-populations, owing to common basic physiology. For the highest agent concentration used (C=64 Ig/mL) there appears to be complete eradication of the entire microbial population after the third sample in time. Therefore, no experimental points beyond that are considered in the data fit. Further, it is assumed that the maximum kill rate, Kk, occurring at an antibiotic concentration high enough to saturate all bacterial target sites, is the same for all bacteria, namely Kk=Kb. […] The values of the remaining parameters are estimated using standard nonlinear least squares for concentrations C=0.5, . . . , 32 Ig/mL (Table 4)."}, "[9]": {"conditions": "strain MR1 (Placebo exposure, OprD−)"}, "[10]": {"conditions": "strain MR2 (Cmin/MIC 0.5, OprD− & Mex+)"}, "[11]": {"conditions": "strain MR3 (Cmin/MIC 1.7, OprD− & Mex+), read-out: MIC"}},
  "note": "Read-outs that look alike come from different tables or passages of the source.",
  "data": [
    {"smiles": "CC1(C)S[C@@H]2[C@H](NC(=O)C(C(=O)O)c3ccccc3)C(=O)N2[C@H]1C(=O)O", "note": "(stereo partly shown) [CAR, carbenicillin]", "values": [
      {"measurement": "MIC", "setting": "[1]; strain MR2 (Cmin/MIC 0.5, OprD− & Mex+), macrobroth method", "value": 512, "unit": "µg/mL"},
      {"measurement": "MIC", "setting": "[1]; strain MR3 (Cmin/MIC 1.7, OprD− & Mex+), macrobroth method, read-out: MIC", "value": 512, "unit": "µg/mL"},
      {"measurement": "MIC", "setting": "[1]; strain PA 27853, macrobroth method", "value": 64, "unit": "µg/mL"}
    ]},
    {"smiles": "CC(C)(O/N=C(\\C(=O)N[C@@H]1C(=O)N2C(C(=O)[O-])=C(C[n+]3ccccc3)CS[C@H]12)c1csc(N)n1)C(=O)O", "note": "[CAZ, ceftazidime]", "values": [
      {"measurement": "MIC", "setting": "[2]; [9]", "value": 1, "unit": "µg/mL"},
      {"measurement": "MIC", "setting": "[2]; [10]", "value": 2, "unit": "µg/mL"},
      {"measurement": "MIC", "setting": "[2]; [11]", "value": 4, "unit": "µg/mL"},
      {"measurement": "MIC", "setting": "[2]; strain PA 27853", "value": 1, "unit": "µg/mL"}
    ]},
    {"smiles": "C[C@@H](O)[C@H]1C(=O)N2C(C(=O)O)=C(SCCN=CN)C[C@H]12", "note": "[IPM, imipenem]", "values": [
      {"measurement": "MIC", "setting": "[2]; [9]", "value": "> 32", "unit": "µg/mL"},
      {"measurement": "MIC", "setting": "[2]; [10]", "value": "> 32", "unit": "µg/mL"},
      {"measurement": "MIC", "setting": "[2]; [11]", "value": 32, "unit": "µg/mL"},
      {"measurement": "MIC", "setting": "[2]; strain PA 27853", "value": 3, "unit": "µg/mL"}
    ]},
    {"smiles": "CCN1CCN(C(=O)N[C@@H](C(=O)N[C@@H]2C(=O)N3[C@@H]2SC(C)(C)[C@@H]3C(=O)O)c2ccccc2)C(=O)C1=O", "note": "[PIP, piperacillin]", "values": [
      {"measurement": "MIC", "setting": "[2]; [9]", "value": 3, "unit": "µg/mL"},
      {"measurement": "MIC", "setting": "[2]; [10]", "value": 8, "unit": "µg/mL"},
      {"measurement": "MIC", "setting": "[2]; [11]", "value": 32, "unit": "µg/mL"},
      {"measurement": "MIC", "setting": "[2]; strain PA 27853", "value": 3, "unit": "µg/mL"}
    ]},
    {"smiles": "NC[C@H]1O[C@H](O[C@H]2[C@H](O)[C@@H](O[C@H]3O[C@H](CO)[C@@H](O)[C@H](N)[C@H]3O)[C@H](N)C[C@@H]2N)[C@H](N)C[C@@H]1O", "note": "[TOB, tobramycin]", "values": [
      {"measurement": "cross-resistance", "setting": "[3]", "value": "observed"},
      {"measurement": "MIC", "setting": "[2]; [9]", "value": 0.5, "unit": "µg/mL"},
      {"measurement": "MIC", "setting": "[2]; [10]", "value": 0.5, "unit": "µg/mL"},
      {"measurement": "MIC", "setting": "[2]; [11]", "value": 0.5, "unit": "µg/mL"},
      {"measurement": "MIC", "setting": "[2]; strain PA 27853", "value": 0.5, "unit": "µg/mL"}
    ]},
    {"smiles": "NCC[C@H](O)C(=O)N[C@@H]1C[C@H](N)[C@@H](O[C@H]2O[C@H](CN)[C@@H](O)[C@H](O)[C@H]2O)[C@H](O)[C@H]1O[C@H]1O[C@H](CO)[C@@H](O)[C@H](N)[C@H]1O", "note": "[amikacin]", "values": [
      {"measurement": "MBC", "setting": "[4]", "value": 8, "unit": "µg/mL"},
      {"measurement": "MIC", "setting": "[4]", "value": 4, "unit": "µg/mL"},
      {"measurement": "H", "setting": "[5]; AB BAA 747", "value": 3.06},
      {"measurement": "Kk", "setting": "[5]; AB BAA 747", "value": 27.81, "unit": "h⁻¹"},
      {"measurement": "β", "setting": "[5]; AB BAA 747", "value": 50.09},
      {"measurement": "τ", "setting": "[5]; AB BAA 747", "value": 442, "unit": "µL/min/mg"},
      {"measurement": "EC50", "setting": "[5]; Acinetobacter baumannii, BAA747, AB BAA 747, read-out: C50k", "value": 1.56, "unit": "µg/mL"},
      {"measurement": "concentrations with complete bacterial eradication", "setting": "[5]; after 2 hours of drug exposure", "value": "> 16", "unit": "mg/L"},
      {"measurement": "stability of resistance", "setting": "[3]; resistant isolates from sub-optimal dosing regimens", "value": "phenotypically stable"}
    ]},
    {"smiles": "CO/N=C(\\C(=O)N[C@@H]1C(=O)N2C(C(=O)[O-])=C(C[N+]3(C)CCCC3)CS[C@H]12)c1csc(N)n1", "note": "[cefepime]", "values": [
      {"measurement": "cross-resistance", "setting": "[3]", "value": "not"}
    ]},
    {"smiles": "O=C(O)c1cn(C2CC2)c2cc(N3CCNCC3)c(F)cc2c1=O", "note": "[ciprofloxacin]", "values": [
      {"measurement": "cross resistance, change in MIC", "setting": "[6]; levofloxacin resistant isolates", "value": "≥ 4", "unit": "fold"}
    ]},
    {"smiles": "C[C@H]1COc2c(N3CCN(C)CC3)c(F)cc3c(=O)c(C(=O)O)cn1c23", "note": "[levofloxacin]", "values": [
      {"measurement": "MIC", "setting": "P. aeruginosa ATCC 27853 [7]", "value": 2, "unit": "Ig/mL"},
      {"measurement": "MIC", "setting": "[1]", "value": 6, "unit": "µg/mL"},
      {"measurement": "EC50", "setting": "P. aeruginosa ATCC 27853 [8]; ATCC27853, read-out: C50", "value": 0.86, "unit": "µg/mL"},
      {"measurement": "EC50", "setting": "P. aeruginosa ATCC 27853 [8]; ATCC27853, read-out: C50b", "value": 39.4, "unit": "µg/mL"},
      {"measurement": "C50A", "setting": "P. aeruginosa ATCC 27853 [8]; model fit", "value": 0.45, "unit": "µg/mL"},
      {"measurement": "H", "setting": "P. aeruginosa ATCC 27853 [8]; model fit", "value": 1.7},
      {"measurement": "HA", "setting": "P. aeruginosa ATCC 27853 [8]; model fit", "value": 10},
      {"measurement": "Hb", "setting": "P. aeruginosa ATCC 27853 [8]; model fit", "value": 24},
      {"measurement": "increase in MIC compared to the parent strain", "setting": "[6]; two random isolates from drug supplemented media plates", "value": 16, "unit": "fold"},
      {"measurement": "MIC", "setting": "[2]; [9]", "value": 0.75, "unit": "µg/mL"},
      {"measurement": "MIC", "setting": "[2]; [10]", "value": 4, "unit": "µg/mL"},
      {"measurement": "MIC", "setting": "[2]; strain PA 27853", "value": 0.75, "unit": "µg/mL"}
    ]}
  ]
}
